Data from ChEMBL document CHEMBL3400131, “Discovery of potent and selective urea-based ROCK inhibitors: Exploring the inhibitor's potency and ROCK2/PKA selectivity by 3D-QSAR, molecular docking and molecular dynamics simulations” (Bioorg Med Chem, 2015).

Legend:
[1] = Inhibition of recombinant human full length PKA using kemptide substrate after 80 mins by luminescence mode
[2] = target: Rho-associated protein kinase 2 (Homo sapiens, UniProt O75116); experiment: Inhibition of ROCK2 (unknown origin) using STK2 substrate after 4 hrs by HTRF mode
Chain of Rho-associated protein kinase 2 (O75116 whole entry): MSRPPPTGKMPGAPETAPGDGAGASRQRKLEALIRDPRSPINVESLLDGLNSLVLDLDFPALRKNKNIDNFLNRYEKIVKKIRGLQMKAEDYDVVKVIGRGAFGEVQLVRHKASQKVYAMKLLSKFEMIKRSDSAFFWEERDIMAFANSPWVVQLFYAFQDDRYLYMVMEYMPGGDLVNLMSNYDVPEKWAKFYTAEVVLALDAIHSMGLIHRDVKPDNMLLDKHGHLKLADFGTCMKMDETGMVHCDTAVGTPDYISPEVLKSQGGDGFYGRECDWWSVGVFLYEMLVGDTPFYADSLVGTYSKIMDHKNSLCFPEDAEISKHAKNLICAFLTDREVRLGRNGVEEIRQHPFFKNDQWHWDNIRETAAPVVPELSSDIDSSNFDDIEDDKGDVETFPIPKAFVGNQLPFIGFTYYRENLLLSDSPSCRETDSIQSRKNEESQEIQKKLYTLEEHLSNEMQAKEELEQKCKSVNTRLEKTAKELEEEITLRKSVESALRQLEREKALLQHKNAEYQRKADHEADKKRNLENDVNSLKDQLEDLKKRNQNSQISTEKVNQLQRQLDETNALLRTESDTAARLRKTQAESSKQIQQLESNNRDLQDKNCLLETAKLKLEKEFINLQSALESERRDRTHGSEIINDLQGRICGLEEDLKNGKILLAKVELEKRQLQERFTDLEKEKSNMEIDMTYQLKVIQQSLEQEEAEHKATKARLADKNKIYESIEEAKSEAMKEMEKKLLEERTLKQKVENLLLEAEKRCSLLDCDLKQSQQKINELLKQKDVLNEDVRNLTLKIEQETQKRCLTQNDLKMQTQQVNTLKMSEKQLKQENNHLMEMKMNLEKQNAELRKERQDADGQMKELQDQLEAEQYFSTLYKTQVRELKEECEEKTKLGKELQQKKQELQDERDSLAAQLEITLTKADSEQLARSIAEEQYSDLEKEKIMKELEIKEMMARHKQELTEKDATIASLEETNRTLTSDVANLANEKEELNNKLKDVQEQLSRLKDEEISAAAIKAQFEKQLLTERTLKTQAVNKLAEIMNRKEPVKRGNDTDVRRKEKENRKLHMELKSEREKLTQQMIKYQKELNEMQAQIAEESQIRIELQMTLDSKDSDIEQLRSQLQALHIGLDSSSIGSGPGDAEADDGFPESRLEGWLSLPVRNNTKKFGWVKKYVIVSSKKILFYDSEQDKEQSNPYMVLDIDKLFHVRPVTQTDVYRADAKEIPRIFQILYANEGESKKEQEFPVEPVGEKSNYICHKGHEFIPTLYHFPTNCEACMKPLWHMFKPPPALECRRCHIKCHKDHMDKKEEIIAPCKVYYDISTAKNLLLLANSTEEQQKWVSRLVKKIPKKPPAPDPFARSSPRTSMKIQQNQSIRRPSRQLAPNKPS

Structure (SMILES) | IC50 [1] [nM] | IC50 [2] [nM]
CCN(Cc1cccc(OC)c1)C(=O)Nc1ccc(-c2cn[nH]c2)cc1O[C@H]1CCN(C)C1 | 6700 | 
COc1cccc(CNC(=O)Nc2ccc(-c3cn[nH]c3)cc2N(C)CCN(C)C)c1 | 3570 | 
COc1cccc(CN(C)C(=O)Nc2ccc(-c3cn[nH]c3)cc2OCCN2CCCC2)c1 | > 20000 | 
COc1cccc(CNC(=O)Nc2ccc(-c3cn[nH]c3)cc2)c1OC | > 20000 | 
COc1ccc(CNC(=O)Nc2ccc(-c3cn[nH]c3)cc2)cc1F | 518 | 
COc1ccccc1CNC(=O)Nc1ccc(-c2cn[nH]c2)cc1 | 654 | 
COc1cccc(CN(CCN)C(=O)Nc2ccc(-c3cn[nH]c3)cc2)c1 | 72 | 
COc1ccc(CNC(=O)Nc2ccc(-c3cn[nH]c3)cc2)cc1OC | > 20000 | 
COc1cc(CNC(=O)Nc2ccc(-c3cn[nH]c3)cc2)cc(OC)c1 | > 20000 | 
COc1cccc(CN(CCN2CCCC2)C(=O)Nc2ccc(-c3cn[nH]c3)cc2)c1 | 541 | 
COc1cccc(CN(CCN2CCOCC2)C(=O)Nc2ccc(-c3cn[nH]c3)cc2)c1 | 3820 | 
CNC(=O)N(C)c1ccc(-c2cn[nH]c2)cc1 | > 20000 | 87
COc1ccc(CNC(=O)Nc2ccc(-c3cn[nH]c3)cc2)c(OC)c1 | 11200 | 
COc1cccc(CNC(=O)Nc2ccc(-c3cn[nH]c3)cc2Cl)c1 | 313 | 
COc1cccc(CNC(=O)Nc2ccc(-c3ccnc(N)c3)cc2)c1 | 5140 | 
CCN(Cc1cccc(OC)c1)C(=O)Nc1ccc(-c2cn[nH]c2)cc1 | 4670 | 
O=C(NCc1ccccc1)Nc1ccc(-c2cn[nH]c2)cc1 | 590 | 
COc1cccc(CN(C)C(=O)Nc2ccc(-c3cn[nH]c3)cc2)c1 | 1810 | 
COc1cccc(CNC(=O)Nc2ccc(-c3c[nH]nc3C)cc2)c1 | 816 | 
O=C(NCc1cccc(F)c1)Nc1ccc(-c2cn[nH]c2)cc1 | 322 | 
COc1cccc(CNC(=O)Nc2ccc(-c3cn[nH]c3)cc2N(C)C)c1 | 38 | 
CNC(=O)N(CCCN(C)C)c1ccc(-c2cn[nH]c2)cc1 | 12000 | 3320
COc1cccc(CN(C)C(=O)Nc2ccc(-c3cn[nH]c3)cc2N(C)CCN(C)C)c1 | 4620 | 

Structure (SMILES) | IC50 [1] [nM] | IC50 [2] [nM]
CNC(=O)N(CCN(C)C)c1ccc(-c2cn[nH]c2)cc1 | 4200 | 2980
O=C(NCCCc1ccccc1)Nc1ccc(-c2cn[nH]c2)cc1 | > 20000 | 
Nc1cccc(CNC(=O)Nc2ccc(-c3cn[nH]c3)cc2)c1 | 405 | 
COc1cccc(C(CCO)NC(=O)Nc2ccc(-c3cn[nH]c3)cc2)c1 (stereo unspecified) | 4870 | 
O=C(Nc1ccc(-c2cn[nH]c2)cc1OCCO)N(CCO)Cc1ccccc1 | 615 | < 1
COc1cccc(OC)c1CNC(=O)Nc1ccc(-c2cn[nH]c2)cc1 | 13500 | 
CN(C)CCOc1cc(-c2cn[nH]c2)ccc1NC(=O)N(CCN(C)C)Cc1ccccc1 |  | 170
COc1cccc(CN(CCN2CCCCC2)C(=O)Nc2ccc(-c3cn[nH]c3)cc2)c1 | 338 | 
CC(C)N(Cc1ccccc1)C(=O)Nc1ccc(-c2cn[nH]c2)cc1 | 3380 | 8
CNC(=O)N(CCO)c1ccc(-c2cn[nH]c2)cc1 | > 20000 | 611
O=C(Nc1ccc(-c2cn[nH]c2)cc1)N(CCO)Cc1ccccc1 | 610 | 
COc1cccc(CNC(=O)Nc2ccc(-c3ccnc(N)n3)cc2)c1 | 1030 | 
O=C(Nc1ccc(-c2cn[nH]c2)cc1)NC(CCO)c1cccc(F)c1 (stereo unspecified) | 580 | 
Cc1cccc(CNC(=O)Nc2ccc(-c3cn[nH]c3)cc2)c1 | 2630 | 
O=C(NCCc1ccccc1)Nc1ccc(-c2cn[nH]c2)cc1 | 3100 | 
O=C(Nc1ccc(-c2cn[nH]c2)cc1)N1CCc2ccccc2C1 | 8000 | 
COc1cccc(CN(C(=O)Nc2ccc(-c3cn[nH]c3)cc2)C2CC2)c1 | 1700 | 
COc1cccc(CNC(=O)Nc2ccc(-c3cn[nH]c3)cc2OCCN(C)C)c1 | 3900 | 
O=C(Nc1ccc(-c2cn[nH]c2)cc1F)N(CCO)Cc1ccccc1 | 1020 | 
COc1cccc(CN(CCCN2CCCC2)C(=O)Nc2ccc(-c3cn[nH]c3)cc2)c1 | 228 | 
CCN(Cc1cccc(OC)c1)C(=O)Nc1ccc(-c2cn[nH]c2)cc1OCCN1CCCC1 | 18100 | 
COc1cccc(CNC(=O)Nc2ccc(-c3cn[nH]c3)cc2OC)c1 | 163 | 
COc1cccc(CN(CCCN2CCOCC2)C(=O)Nc2ccc(-c3cn[nH]c3)cc2)c1 | 724 | 

Structure (SMILES) | IC50 [1] [nM] | IC50 [2] [nM]
COc1cccc(CNC(=O)Nc2ccc(-c3cn[nH]c3)cc2F)c1 | 1820 | 
COc1cccc(CN(CCCN2CCCCC2)C(=O)Nc2ccc(-c3cn[nH]c3)cc2)c1 | 822 | 
O=C(NCc1cccc(Cl)c1)Nc1ccc(-c2cn[nH]c2)cc1 | 454 | 
COc1cccc(CNC(=O)Nc2ccc(-c3ccncc3)cc2)c1 | 2300 | 
COc1cccc(CNC(=O)Nc2ccc(-c3cn[nH]c3)cc2OCCN2CCCC2)c1 | 2730 | 
COc1cccc(CNC(=O)Nc2ccc(-c3ncnc4[nH]ccc34)cc2)c1 | 744 | 188
COc1cccc(CN(CCO)C(=O)Nc2ccc(-c3cn[nH]c3)cc2)c1 | 2990 | 
CN(C)CCC(NC(=O)Nc1ccc(-c2cn[nH]c2)cc1)c1ccccc1 (stereo unspecified) | 238 | 
CN(C)CCSc1cc(-c2cn[nH]c2)ccc1NC(=O)NCc1ccccc1 | 468 | 5.6
COc1cccc(CNC(=O)Nc2ccc(-c3cn[nH]c3)cc2)c1 | 882 | 
O=C(Nc1ccc(-c2cn[nH]c2)cc1)NC(CO)c1ccccc1 (stereo unspecified) | 389 | 
COc1cccc(CN(C)C(=O)Nc2ccc(-c3cn[nH]c3)cc2OCCN(C)C)c1 | 5220 | 
CCN(Cc1cccc(OC)c1)C(=O)Nc1ccc(-c2cn[nH]c2)cc1OCCN(C)C | > 20000 | 
O=C(Nc1ccc(-c2cn[nH]c2)cc1)NC(CCO)c1ccccc1 (stereo unspecified) | 438 | 
O=C(NCC1CCCCC1)Nc1ccc(-c2cn[nH]c2)cc1 | > 20000 | 
COCCN(Cc1cccc(OC)c1)C(=O)Nc1ccc(-c2cn[nH]c2)cc1 | 10500 | 
COc1cccc(CN(CCN(C)C)C(=O)Nc2ccc(-c3cn[nH]c3)cc2)c1 | 456 | 
COc1cccc(CN(C(=O)Nc2ccc(-c3cn[nH]c3)cc2)C(C)C)c1 | 18400 | 
CCN(Cc1cccc(OC)c1)C(=O)Nc1ccc(-c2cn[nH]c2)cc1N(C)CCN(C)C | 5000 | 
COc1ccc(OC)c(CNC(=O)Nc2ccc(-c3cn[nH]c3)cc2)c1 | > 20000 | 
CN(C)CCN(C)c1cc(-c2cn[nH]c2)ccc1NC(=O)NCc1ccccc1 | 894 | 8.5
